Experiment [1] concerns the target T1, CnTDH (Cupriavidus necator, UniProt Q0K312, V11I/R67K/G69K/G263D/Q265E/D282Q, form not given).
T1 construct: gene H16_B0820; recombinant in E. coli BL21(DE3), His-tag (HisTrap; pET15b NdeI/BamHI for the designed variants), size-exclusion purified
Briefly: NADH formation at […] nm, Michaelis-Menten fit. Format: biochemical. The note with it: 0.1 M Gly-KOH pH 10.0; 2.5 mM NAD+; 0.0-40 mM L-threonine.

For experiment [2], the target named is T2, CnTDH (Cupriavidus necator, UniProt Q0K312, N14C/R31N/A62E/A160N/H177Y/A291K/A310K, form not given).
T2 construct: gene H16_B0820; recombinant in E. coli BL21(DE3), His-tag (HisTrap; pET15b NdeI/BamHI for the designed variants), size-exclusion purified
Briefly: NADH formation at […] nm, Michaelis-Menten fit. Type of experiment: biochemical. The conditions noted are these: 0.1 M Gly-KOH pH 10.0; 2.5 mM NAD+; 0.0-40 mM L-threonine.

Broadly, the Km is the substrate concentration at which the rate is half of its maximum. With `C[C@@H](O)[C@H](N)C(=O)O` [L-threonine], the Km in experiment [1] stood at 11.6 ± 1.4 mM; in experiment [2] it was 17.4 ± 1.9 mM.

The values are drawn from publication PMC12798769, “GArNet: A Genetic Algorithm-Based Protein Redesign Approach to Optimize Mutation Combinations Informed by Network Theory” (Journal of Chemical Information and Modeling, 2025).
